Data reported in ChEMBL document CHEMBL3885861, “Open TG-GATES”.

Organism: Rattus norvegicus
Experiment: Open TG-GATES - Regimen: Single
Type: toxicity, organism-based, Sprague-Dawley
Set-up: regimen Single, gender Male, age 6 weeks
Details: in vivo, po, 100 mg/kg, route gavage, dose level Low; for APTT / Bas / Eos / Fbg / Hb / Ht / Lym / MCH / MCHC / MCV / Mono / Neu / PT / Plat / RBC / Ret / WBC: tissue Blood; for KIDNEY_L / KIDNEY_R / KIDNEY_TOTAL: tissue Kidney; for LIVER: tissue Liver; for A/G / ALP / ALT / AST / BUN / CRE / Ca / Cl / DBIL / GLC / IP / K / LDH / Na / PL / RALB / TBIL / TC / TG / TP / gamma-GTP: tissue Plasma

COc1ccc(Cl)cc1C(=O)NCCc1ccc(S(=O)(=O)NC(=O)NC2CCCCC2)cc1 [GLYBURIDE]
TERMINAL_BW (3 h): 218.6 g | APTT (3 h): 19.3 s | Bas (3 h): 0% | Eos (3 h): 1% | Fbg (3 h): 215.8 mg/dL | Hb (3 h): 13.2 g/dL | Ht (3 h): 41% | Lym (3 h): 69.8% | MCH (3 h): 20.2 pg | MCHC (3 h): 32.3% | MCV (3 h): 62.6 fL | Mono (3 h): 2.8% | Neu (3 h): 25.4% | PT (3 h): 12.3 s | Plat (3 h): 125.3 x10_4/uL | RBC (3 h): 654.4 x10_4/ul | Ret (3 h): 8.1% | WBC (3 h): 93.1 x10_2/uL | KIDNEY_L (3 h): 0.9 g | KIDNEY_R (3 h): 1 g | KIDNEY_TOTAL (3 h): 1.9 g | LIVER (3 h): 9.7 g | A/G (3 h): 1.6 | ALP (3 h): 990.2 IU/L | ALT (3 h): 44.4 IU/L | AST (3 h): 69.4 IU/L | BUN (3 h): 12.8 mg/dL | CRE (3 h): 0.4 mg/dL | Ca (3 h): 10.7 mg/dL | Cl (3 h): 103 meq/L | DBIL (3 h): 0.1 mg/dL | GLC (3 h): 141 mg/dL | IP (3 h): 8.2 mg/dL | K (3 h): 3.7 meq/L | LDH (3 h): 145.6 IU/L | Na (3 h): 140.8 meq/L | PL (3 h): 174.8 mg/dL | RALB (3 h): 3.5 g/dL | TBIL (3 h): 0.2 mg/dL | TC (3 h): 89.8 mg/dL | TG (3 h): 87 mg/dL | TP (3 h): 5.7 g/dL | gamma-GTP (3 h): 1.4 IU/L | TERMINAL_BW (6 h): 214.4 g | APTT (6 h): 19.6 s | Bas (6 h): 0% | Eos (6 h): 0.8% | Fbg (6 h): 222.6 mg/dL | Hb (6 h): 13.9 g/dL | Ht (6 h): 42.5% | Lym (6 h): 76.2% | MCH (6 h): 20.6 pg | MCHC (6 h): 32.6% | MCV (6 h): 63.3 fL | Mono (6 h): 2.8% | Neu (6 h): 18.8% | PT (6 h): 12.7 s | Plat (6 h): 118.8 x10_4/uL | RBC (6 h): 671.8 x10_4/ul | Ret (6 h): 7.8% | WBC (6 h): 101.9 x10_2/uL | KIDNEY_L (6 h): 0.9 g | KIDNEY_R (6 h): 0.9 g | KIDNEY_TOTAL (6 h): 1.8 g | LIVER (6 h): 9.3 g | A/G (6 h): 1.7 | ALP (6 h): 837 IU/L | ALT (6 h): 40.2 IU/L | AST (6 h): 67.4 IU/L | BUN (6 h): 13 mg/dL | CRE (6 h): 0.4 mg/dL | Ca (6 h): 10.7 mg/dL | Cl (6 h): 104.4 meq/L | DBIL (6 h): 0.098 mg/dL | GLC (6 h): 168.6 mg/dL | IP (6 h): 8.6 mg/dL | K (6 h): 3.8 meq/L | LDH (6 h): 136 IU/L | Na (6 h): 141.8 meq/L | PL (6 h): 145.2 mg/dL | RALB (6 h): 3.5 g/dL | TBIL (6 h): 0.2 mg/dL | TC (6 h): 72.2 mg/dL | TG (6 h): 64.8 mg/dL | TP (6 h): 5.6 g/dL | gamma-GTP (6 h): 1.2 IU/L | TERMINAL_BW (9 h): 211.4 g | APTT (9 h): 19.7 s | Bas (9 h): 0% | Eos (9 h): 1% | Fbg (9 h): 223.4 mg/dL | Hb (9 h): 13.4 g/dL | Ht (9 h): 41.4% | Lym (9 h): 79.8% | MCH (9 h): 20.5 pg | MCHC (9 h): 32.5% | MCV (9 h): 63.2 fL | Mono (9 h): 3% | Neu (9 h): 15.6% | PT (9 h): 12.9 s | Plat (9 h): 122.6 x10_4/uL | RBC (9 h): 654.8 x10_4/ul | Ret (9 h): 8.2% | WBC (9 h): 77.5 x10_2/uL | KIDNEY_L (9 h): 0.9 g | KIDNEY_R (9 h): 0.9 g | KIDNEY_TOTAL (9 h): 1.9 g | LIVER (9 h): 8.7 g | A/G (9 h): 1.6 | ALP (9 h): 982.4 IU/L | ALT (9 h): 30.2 IU/L | AST (9 h): 69.2 IU/L | BUN (9 h): 12.4 mg/dL | CRE (9 h): 0.4 mg/dL | Ca (9 h): 10.3 mg/dL | Cl (9 h): 104.2 meq/L | DBIL (9 h): 0.084 mg/dL | GLC (9 h): 153.8 mg/dL | IP (9 h): 10.4 mg/dL | K (9 h): 3.4 meq/L | LDH (9 h): 136.6 IU/L | Na (9 h): 142.4 meq/L | PL (9 h): 143 mg/dL | RALB (9 h): 3.4 g/dL | TBIL (9 h): 0.1 mg/dL | TC (9 h): 79.6 mg/dL | TG (9 h): 42 mg/dL | TP (9 h): 5.6 g/dL | gamma-GTP (9 h): 1 IU/L | TERMINAL_BW (24 h): 227.7 g | APTT (24 h): 18.4 s | Bas (24 h): 0.4% | Eos (24 h): 1% | Fbg (24 h): 211.8 mg/dL | Hb (24 h): 13 g/dL | Ht (24 h): 37.6% | Lym (24 h): 76.8% | MCH (24 h): 21.7 pg | MCHC (24 h): 34.5% | MCV (24 h): 62.9 fL | Mono (24 h): 3.2% | Neu (24 h): 18.8% | PT (24 h): 13.1 s | Plat (24 h): 119.3 x10_4/uL | RBC (24 h): 599 x10_4/ul | Ret (24 h): 7.1% | WBC (24 h): 83.2 x10_2/uL | KIDNEY_L (24 h): 1 g | KIDNEY_R (24 h): 0.9 g | KIDNEY_TOTAL (24 h): 1.9 g | LIVER (24 h): 9.5 g | A/G (24 h): 1.7 | ALP (24 h): 950.8 IU/L | ALT (24 h): 35.4 IU/L | AST (24 h): 68.4 IU/L | BUN (24 h): 14.6 mg/dL | CRE (24 h): 0.4 mg/dL | Ca (24 h): 10.7 mg/dL | Cl (24 h): 103.4 meq/L | DBIL (24 h): 0.09 mg/dL | GLC (24 h): 212.4 mg/dL | IP (24 h): 7.9 mg/dL | K (24 h): 3.5 meq/L | LDH (24 h): 174.2 IU/L | Na (24 h): 142.2 meq/L | PL (24 h): 136 mg/dL | RALB (24 h): 3.4 g/dL | TBIL (24 h): 0.1 mg/dL | TC (24 h): 72.2 mg/dL | TG (24 h): 67.4 mg/dL | TP (24 h): 5.4 g/dL | gamma-GTP (24 h): 1.4 IU/L
